Measurements from patent US10201532B2, “Compounds and their use” (ALLECRA THERAPEUTICS GMBH, priority 2010, dated 2019).

Experiments:
[1] = system: P. mirabilis BAA-663 (TEM-89); assay: MIC of Piperacillin with inhibitor, ESBL isolates; assay type: cell-based
E. coli BAA-201 (TEM-3) = assay: MIC of Piperacillin with inhibitor, ESBL isolates; assay type: cell-based
E. coli BAA-197 (TEM-12) = assay: MIC of Piperacillin with inhibitor, ESBL isolates; assay type: cell-based, Escherichia coli
[2] = system: K. pneumoniae ATCC 700603 (SHV18); assay: Disk zone of inhibition, antibiotic + Compound-1 on same disk (Methodology 2); assay type: cell-based, Klebsiella pneumoniae
Source text: (§1) In this experiment, Compound-1 is used as a diagnostic reagent for the detection of β-lactamases belonging to the families KPC & ESBL (e.g., SHV18) producing Enterobacteriaceae. A simple set of absorbent paper disks impregnated with antibiotic on agar medium is used for the detection.
(§2) • 0.5 McFarland of the test organism was inoculated at 1:10 dilution on Muller • Hinton Agar plates • Test organisms: Klebsiella pneumoniae (K.p) ATCC BAA-1705, Klebsiella pneumoniae ATCC 700603, Escherichia coli (E.c) Ecoli233 • Carbapenem (e.g., Imipenem [IPM] 10 μg) and cephalosporin (e.g., Ceftazidime [CAZ] 30 μg) paper disks (7 mm) were placed on the inoculated agar plates • Compound-1 (60 μg) disk was placed at a distance of 7 & 10 mm from the carbapenem and cephalosporin disks. • The presence of expressed carbapenemases or ESBLs was measured as the expansion of Imipenem or Ceftazidime's inhibition zones due to synergy in the presence of Compound-1. Results:
The methodology remains the same as Methodology 1 except the following change • Compound-1 (60 μg) was added on the same disk in combination with a carbapenem (e.g., Imipenem 10 μg) or cephalosporin (e.g., Ceftazidime 30 μg) and placed on the inoculated agar plate. • The presence of the expressed carbapenemases or ESBLs was measured as an increase in Imipenem or Ceftazidime's zone diameter in combination with Compound-1 compared to antibiotic alone. Results

[3] = system: KPC/ESBL producing Enterobacteriaceae; assay: Double Disk Synergy Test (Methodology 1); assay type: cell-based, Klebsiella pneumoniae, Escherichia coli; settings: Compound-1 60 μg disk at 7 & 10 mm from antibiotic disks; FIG. 1
Source text: as §1
as §2, with “Compound-1.” for “Compound-1. Results:”

SMILES | MIC of Piperacillin with inhibitor ([1]; inhibitor at 1 μg/mL) | MIC of Piperacillin with inhibitor ([1]; inhibitor at 2 μg/mL) | MIC of Piperacillin with inhibitor ([1]; inhibitor at 4 μg/mL) | MIC of Piperacillin with inhibitor (E. coli BAA-201 (TEM-3); inhibitor at 1 μg/mL) | MIC of Piperacillin with inhibitor (E. coli BAA-201 (TEM-3); inhibitor at 2 μg/mL) | MIC of Piperacillin with inhibitor (E. coli BAA-201 (TEM-3); inhibitor at 4 μg/mL) | MIC of Piperacillin with inhibitor (E. coli BAA-197 (TEM-12); inhibitor at 1 μg/mL) | MIC of Piperacillin with inhibitor (E. coli BAA-197 (TEM-12); inhibitor at 2 μg/mL) | MIC of Piperacillin with inhibitor (E. coli BAA-197 (TEM-12); inhibitor at 4 μg/mL) | ZOI of CAZ + Compound-1 ([2]; Ceftazidime 30 μg + Compound-1 60 μg on same disk) | ZOI of IPM + Compound-1 ([2]; Imipenem 10 μg + Compound-1 60 μg on same disk) | Synergy: increase of Imipenem or Ceftazidime zone adjacent to Compound-1 disk [3]
C[C@]1(Cn2ccnn2)[C@H](C(=O)O)N2C(=O)C[C@H]2S1(=O)=O [Tazobactam] | 8 µg/mL | 8 µg/mL | 4 µg/mL | 4 µg/mL | 4 µg/mL | 2 µg/mL | 64 µg/mL | 8 µg/mL | 4 µg/mL |  |  | 
C[n+]1ccn(C[C@@]2(C)[C@H](C(=O)[O-])N3C(=O)C[C@H]3S2(=O)=O)n1 [Compound-1, 1-{[(2S,3S,5R)-2-Carboxy-3-methyl-4,4,7-trioxo-4-thia-1-azabicyclo[3.2.0]hept-3-yl]methyl}-3-methyl-1H-1,2,3-triazol-3-ium] |  |  |  |  |  |  |  |  |  | 23 mm | 25 mm | Synergy was observed
